# Data as given in US11214806B2, “Marker, method and kit for observing effect of compound or drug on cells in real time, and use thereof” (priority 2016, dated 2022).
# Entries after “also recorded” stand apart in the source; their conditions may differ.
# Key:
# [1] = system: VirE2 trafficking in N. benthamiana (Nb308A) leaf epidermal cells; assay: Real-time VirE2-GFPcomp trafficking in agroinfiltrated tobacco leaf epidermal cells (split-GFP, confocal microscopy); format: cell-based; details: for effect on real-time movement process of protein VirE2-GFP / toxicity as judged from VirE2-GFP movement: drug infiltrated into leaf six hours before observation, FIG. 11; for effect on VirE2 trafficking: infiltrated 6 h before observation, control 0.5% DMSO, FIG. 1b-d
# Protocol: To visualize Agrobacterium-delivered VirE2, agroinfiltration was performed as described previously. Briefly, the bacteria were grown overnight; the cultures were diluted 50 times in MG/L and grown for 6 h. The bacteria were collected and re-suspended in infiltration buffer (10 mM MgCl2, 10 mM MES, pH5.5) to OD600=1.0. The bacterial suspension was infiltrated using a syringe to the underside of fully expended N. benthamiana leaves. The infiltrated plant was placed at 22° C. in a photoperiod of 16 h light/8 h dark. In order to observe a real-time effect of a compound or a drug on cells in real time, the inventor injected and infiltrated the compound or the drug into a leaf injected and infiltrated with A. tumefaciens EHA105virE2::GFP11 cell at an appropriate concentration, and observed with a UPLSAPO×60 N.A. 1.20 water immersion lens under a confocal microscope after six hours.
# A PerkinElmer UltraView Vox Spinning Disk system with EM-CCD cameras was used for confocal microscopy. To observe leaf epidermis, agroinfiltrated leaf tissues were detached from N. benthamiana plants and put in 2% low-melting agarose gel on a glass slide with a coverslip. All images were taken in multiple focal planes (Z-stacks), and were processed to show the extended focus image or 3D opacity view by Volocity® 3D Image Analysis Software 6.2.1.
# FIG. 1 illustrated Agrobacterium-delivered VirE2 trafficking on a cellular structure and entering the nucleus. A. tumefaciens EHA105virE2::GFP11 cells were infiltrated into transgenic N. benthamiana (Nb308A) leaves expressing both GFP1-10 and DsRed. […] Red, free DsRed; Green, VirE2-GFPcomp. (a) Time-lapse images of VirE2 aggregates trafficking along a linear cellular structure and entering the nucleus. Relative time is shown at the top right. Scale bar represents 20 μm. (b) Effects of chemical treatments on VirE2 trafficking. Chemicals were infiltrated into leaf samples 6 h before observation. Control, 0.5% DMSO. Colc, colchicine […] CytoD, cytochalasin D 20 μM. BFA, brefeldin A 100 μg/mL. Scale bar represents 20 μm. (c) Mean velocities of VirE2 aggregate movement after chemical treatments. Data analyzed with ANOVA and Tukey test, p<0.05. (d) Movement tracking of 20 individual VirE2 aggregates plotted to a common origin for each treatment.
# FIG. 4 illustrated effects of ML-7 and myosin-tail overexpression on VirE2 trafficking. (a) Effect of ML-7, a myosin light chain kinase inhibitor, on VirE2 trafficking. A. tumefaciens EHA105virE2::GFP11 cells were infiltrated into transgenic N. benthamiana (Nb308A) leaves expressing both GFP1-10 and DsRed. The leaves were infiltrated with 100 μM ML-7 or 1% DMSO as control 4 h before imaging. […] Red, free DsRed; Green, VirE2-GFPcomp. The movement tracking of 20 individual VirE2 aggregates plotted to a common origin is shown below the figure. Scale bar represents 20 μm. (b) Mean velocity of the VirE2 aggregates after ML-7 treatment. (c) Effects of myosin-tail overexpression on VirE2 trafficking. A. tumefaciens EHA105virE2::GFP11 cells harboring a binary plasmid which encodes a tail fragment of respective myosins downstream of 35S promoter were infiltrated into transgenic N. benthamiana (Nb308A) leaves expressing both GFP1-10 and DsRed. […] Red, free DsRed; Green, VirE2-GFPcomp. The movement tracking of 20 individual VirE2 aggregates plotted to a common origin is shown below the figure. Scale bar represents 20 μm. (d) Mean velocity of VirE2 aggregate movement under overexpression of myosin tails. EV, empty vector control. (e) Western analysis of crude extracts from leaf samples agroinfiltrated with myosin-tail constructs. EV, empty vector control. Myosin tails were HA tagged. GFP1-10 was detected to assess the amount of sample loaded, as shown in the lower panel. […]
# FIG. 11 illustrated an effect of a drug on VirE2 movement. A. tumefaciens EHA105virE2::GFP11 cell was injected and infiltrated into a transgenic tobacco line Nb308A constantly expressing a GFP1-10 and a DsRed. […]
# [2] = system: ER; assay: Effects of chemicals on cellular structures: ER marker ER-mCherry; format: cell-based, N. benthamiana; details: 100 μg/mL BFA at 6 h before imaging; tobacco leaves
# Protocol: (§1) FIG. 5 illustrated effects of chemicals on respective cellular structures. Wild type N. benthamiana leaves were agroinfiltrated with binary plasmids encoding different fluorescent markers. The epidermal cells were examined at 2 d post agroinfiltration under confocal microscope with Olympus UPLSAPO 60×N.A. 1.20 water immersion objective. Upper panels a-c: leaf samples expressing subcellular markers. Lower panels d-f: leaf samples expressing subcellular markers were treated with chemicals. (a) RFP-MBD. MBD, Microtubule Binding Domain. (b) ER-mCherry. (c) tdTomato-ABD2. ABD, Actin Binding Domain. (d) RFP-MBD. Leaf samples were treated with 500 μM colchicine at 6 h before imaging. (e) ER-mCherry. Leaf samples were treated with 100 μg/mL BFA at 6 h before imaging. (f) tdTomato-ABD. Leaf samples were treated with 20 μM cytochalasin D at 6 h before imaging. Scale bar represents 20 μm.
# [3] = system: root segments; assay: Effect of ML-7 on root segment viability; format: cell-based, A. thaliana; details: 10 μM ML-7 for 2 days, in the presence of hormones (auxin and cytokinin); FIG. 9c
# Protocol: (§2) The inventor wants to determine if the VirE2 movement observed during our studies is directly relevant to Agrobacterium-mediated transformation. The present invention tested the effect of a selective myosin light chain kinase inhibitor ML-7 on Arabidopsis root transformation. Root segments were inoculated with a tumor inducing strain A348 in the presence of 10 μM ML-7. […] The present invention tested the toxicity of ML-7 on either the root or Agrobacterium growth at 10 μM ML-7. The root segments were exposed to 10 μM of ML-7 for 2 days, which was the time span for the bacterium-Arabidopsis co-cultivation.
# (§3) FIG. 9 illustrated effects of ML-7 treatment on root tumorigenesis assay. Root segments from 10-day old wild type A. thaliana seedlings were infected with a tumor inducing Agrobacterium stain A348. Tumors were photographed three weeks later. (a) Tumors formed with or without ML-7 treatment. ML-7 was added (10 μM) into the col-cultivation mixture and then washed off when the root segments were transferred onto new plates for tumor formation. (b) Tumorigenesis efficiency as determined by percentage of root segments with tumors. (c) Effect of ML-7 on root segment viability. (d) Effect of ML-7 on Agrobacterium viability
# [4] = system: Arabidopsis root transformation; assay: Root tumorigenesis assay (Arabidopsis root transformation with tumor inducing strain A348); format: cell-based, A. thaliana; details: 10 μM ML-7 in co-cultivation mixture, FIG. 9
# Protocol: Arabidopsis thaliana seeds were surface-sterilized with 0.5% NaClO solution and placed onto solidified ½×MS medium supplemented with 1% sucrose and 0.5 g L^−1 MES, pH 5.8. The plates were then incubated under a 16 hour photoperiod at 25° C. for 10 to 12 days. Roots from individual seedlings were cut into 3-5 mm segments and re-suspended in 1 ml fresh ½×MS medium containing A. tumefaciens cells at a concentration of 5×10^8 cell/ml unless specified otherwise. The mixtures were spread onto a solidified ½×MS plate and subsequently incubated at 25° C. for 2 days. The root segments were aligned onto ½×MS medium plates containing […] cefotaxime and kept at 25° C. for 4 weeks before photographing.
# as §3
# [5] = system: Agrobacterium; assay: Effect of ML-7 on Agrobacterium viability; format: cell-based, A. tumefaciens; details: 10 μM ML-7
# Protocol: as §2, §3
# [6] = system: actin structures; assay: Effects of chemicals on cellular structures: actin marker tdTomato-ABD2; format: cell-based, N. benthamiana; details: 20 μM cytochalasin D at 6 h before imaging; tobacco leaves
# Protocol: as §1
# [7] = system: microtubule; assay: Effects of chemicals on cellular structures: microtubule marker RFP-MBD; format: cell-based, N. benthamiana; details: 500 μM colchicine at 6 h before imaging; tobacco leaves
# Protocol: as §1
# [8] = colchicine 500 μM, cytochalasin D 20 μM, brefeldin A 100 μg/mL
smiles,measurement,setting,value
CC(=O)N1CCN(c2ccc(OCC3COC(Cn4ccnc4)(c4ccc(Cl)cc4Cl)O3)cc2)CC1 (centres unmarked) [Ketoconazole],effect on real-time movement process of protein VirE2-GFP,[1],does not affect
same,toxicity as judged from VirE2-GFP movement,[1],less toxic
Clc1ccc(COC(Cn2ccnc2)c2ccc(Cl)cc2Cl)cc1 (centres unmarked) [Econazole],effect on real-time movement process of protein VirE2-GFP,[1],significantly affects
same,toxicity as judged from VirE2-GFP movement,[1],highly toxic
C[C@H]1CCC/C=C/[C@@H]2C[C@H](O)C[C@H]2[C@H](O)/C=C/C(=O)O1 [brefeldin A],effect on ER structure,[2],disrupted
same,effect on VirE2 trafficking,[1]; [8],severely affected
O=S(=O)(c1cccc2c(I)cccc12)N1CCCNCC1 [ML-7],growth of root segments,[3],did not affect
same,transformation efficiency (tumorigenesis),[4],significantly reduced
same,effect on VirE2 movement,"[1]; 100 μM ML-7 infiltrated 4 h before imaging, control 1% DMSO, FIG. 4",obviously stops
same,decrease of average rate of the movement of the VirE2 compared with control group,"[1]; 100 μM ML-7 infiltrated 4 h before imaging, control 1% DMSO, FIG. 4b",95%
same,Agrobacterium growth,[5],did not inhibit
C=C1[C@@H](C)[C@H]2[C@H](Cc3ccccc3)NC(=O)[C@]23[C@H](OC(C)=O)/C=C/[C@@](C)(O)C(=O)[C@@H](C)C/C=C/[C@H]3[C@@H]1O [cytochalasin D],effect on VirE2 trafficking,[1]; [8],severely affected
same,effect on VirE2 trafficking,"[1]; colchicine 500 μM, cytochalasin D 20 μM, brefeldin A 100 μg/mL, listed as CytoD",stop the VirE2 movement
same,effect on actin structure,[6],disrupted
COc1cc2c(c(OC)c1OC)-c1ccc(OC)c(=O)cc1[C@@H](NC(C)=O)CC2 [colchicine],"average velocity of VirE2 movement, relative to the control","[1]; colchicine 500 μM, cytochalasin D 20 μM, brefeldin A 100 μg/mL, 6 h before observation, over 20 events per treatment, FIG. 1c",over 60%
same,effect on VirE2 trafficking,[1]; [8],minor effect; also recorded: did not affect the VirE2 trafficking significantly
same,effect on microtubule structure,[7],disrupted
